Assays:
[1] = test system: MiaPaca human pancreatic carcinoma cells; assay: Cell-proliferation assay using Alamar Blue dye; assay type: cell-based; conditions: MIA PaCa-2, Table 45
Description: (§1) A representative cell-proliferation assay protocol using Alamar Blue dye (stored at 4° C., use 20 ul per well) is described hereafter.
(§2) • a. Split and trypsinize cells. • b. Count cells using hemocytometer. • c. Plate 4,000-5,000 cells per well in 100 μl of medium and seed into a 96-well plate according to the following plate layout. Add cell culture medium only to wells B10 to B12. Wells B1 to B9 have cells but no compound added.
(§3) • d. Add 100 μl of 2× drug dilution to each well in a concentration shown in the plate layout above. At the same time, add 100 μl of media into the control wells (wells B10 to B12). Total volume is 200 μl/well. • e. Incubate four (4) days at 37° C., 5% CO2 in a humidified incubator. • f. Add 20 μl Alamar Blue reagent to each well. • g. Incubate for four (4) hours at 37° C., 5% CO2 in a humidified incubator. • h. Record fluorescence at an excitation wavelength of 544 nm and emission wavelength of 590 nm using a microplate reader.
(§4) In the assays, cells are cultured with a test compound for approximately four days, the dye then is added to the cells and fluorescence of […] dye is detected after approximately four hours. Different types of cells can be utilized in the assays (e.g., HCT-116 human colorectal carcinoma cells, PC-3 human prostatic cancer cells and MiaPaca human pancreatic carcinoma cells). Anti-proliferative effects of representative compounds are provided hereafter

recombinant human PIM1 = recombinant human PIM1 (Homo sapiens (Human), UniProt P11309); assay: PIM-1 kinase activity in cell-free in vitro assay; assay type: biochemical; conditions: Table 45
K-562 = assay: Cell proliferation modulatory activity, K-562; assay type: cell-based; conditions: Homo sapiens, K562; Table 45; read-out: K-562 IC50
MV-4-11 = assay: Cell proliferation modulatory activity, MV-4-11; assay type: cell-based; conditions: Homo sapiens, MV4-11; Table 45; read-out: MV-4-11 IC50
PIM2 = PIM2 (Homo sapiens (Human), UniProt Q9P1W9); assay: PIM2 IC50; assay type: biochemical; conditions: Table 45
phosphoBAD ser 112 = phosphoBAD ser 112 IC50; assay type: cell-based; conditions: read-out: phosphoBAD ser 112 IC50; Table 45
MDAMB231 [2] = assay: MDAMB231 IC50; assay type: cell-based; conditions: Homo sapiens, MDA-MB-231; Table 45
MDAMB231 [3] = assay: Cell-proliferation assay using Alamar Blue dye; assay type: cell-based; conditions: Homo sapiens, MDA-MB-231
Description: as §1
96-Well Plate Setup and Compound Treatment
as §2, §3, §4

recombinant human PIM1, sequence (P11309 whole entry): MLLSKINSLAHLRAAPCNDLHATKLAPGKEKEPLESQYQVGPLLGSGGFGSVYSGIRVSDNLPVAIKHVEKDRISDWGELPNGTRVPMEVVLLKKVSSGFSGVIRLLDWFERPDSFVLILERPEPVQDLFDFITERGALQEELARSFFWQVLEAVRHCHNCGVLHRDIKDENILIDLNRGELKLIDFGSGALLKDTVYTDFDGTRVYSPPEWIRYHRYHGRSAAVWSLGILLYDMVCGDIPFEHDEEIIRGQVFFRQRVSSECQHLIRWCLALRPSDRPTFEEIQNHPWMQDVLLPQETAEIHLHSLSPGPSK
PIM2, sequence (Q9P1W9 whole entry): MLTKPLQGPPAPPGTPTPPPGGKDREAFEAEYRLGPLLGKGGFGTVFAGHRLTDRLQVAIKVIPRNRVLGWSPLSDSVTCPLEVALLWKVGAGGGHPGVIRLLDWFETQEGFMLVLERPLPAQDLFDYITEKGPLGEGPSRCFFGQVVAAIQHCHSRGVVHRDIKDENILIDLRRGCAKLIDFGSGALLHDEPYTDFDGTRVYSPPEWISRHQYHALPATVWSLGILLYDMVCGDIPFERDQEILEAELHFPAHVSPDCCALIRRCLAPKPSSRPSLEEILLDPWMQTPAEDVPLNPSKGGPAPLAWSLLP

Row | SMILES | IC50 [1] [nM] | IC50 (recombinant human PIM1) [nM] | IC50 (K-562) [nM] | IC50 (MV-4-11) [nM] | IC50 (PIM2) [nM] | IC50 (phosphoBAD ser 112) [nM] | IC50 (MDAMB231 [2]) [nM] | IC50 (MDAMB231 [3]) [µM]
1 | Cc1cc(F)ccc1Nc1nc2c(-c3nnc[nH]3)cccc2c2cnccc12 | < 5000 | < 100 | < 500 | < 100 | < 100 | < 100 | > 10000 | –
2 | Fc1ccc(Cl)cc1Nc1nc2c(-c3nnc[nH]3)cccc2c2cnccc12 | < 1000 | < 100 | < 5000 | < 100 | < 100 | < 1000 | < 1000 | –
3 | Fc1ccc(Nc2nc3c(-c4nc[nH]n4)cccc3c3cnccc23)c(F)c1 | < 5000 | < 100 | < 5000 | < 100 | < 100 | < 100 | < 5000 | –
4 | Fc1cccc(F)c1Nc1nc2c(-c3nnc[nH]3)cccc2c2cnccc12 | < 1000 | < 100 | < 500 | < 100 | < 100 | < 100 | < 5000 | –
5 | c1ccc(Nc2nc3c(-c4nnc[nH]4)cccc3c3cnccc23)cc1 | < 1000 | < 100 | < 5000 | < 100 | < 1000 | < 100 | > 10000 | –
6 | CCOc1ccc(Nc2nc3c(-c4nnc[nH]4)cccc3c3cnccc23)cc1 | < 1000 | < 100 | < 5000 | < 100 | < 500 | < 100 | > 10000 | –
7 | Fc1ccc(Nc2nc3c(-c4nnc[nH]4)cccc3c3cnccc23)cc1 | < 5000 | < 100 | > 10000 | < 500 | < 500 | < 500 | < 5000 | –
8 | c1cc(-c2nc[nH]n2)c2nc(NC3CC3)c3ccncc3c2c1 | < 1000 | < 100 | < 100 | < 100 | < 100 | < 100 | < 1000 | –
9 | C#Cc1cccc(Nc2nc3c(-c4nnc[nH]4)cccc3c3cnccc23)c1 | < 500 | < 100 | < 5000 | < 100 | < 100 | < 100 | < 500 | –
10 | Clc1cccc(Nc2nc3c(-c4nnc[nH]4)cccc3c3cnccc23)c1 | < 1000 | < 100 | < 1000 | < 500 | < 100 | < 1000 | < 5000 | –
11 | Clc1ccc(Nc2nc3c(-c4nc[nH]n4)cccc3c3cnccc23)cc1 | > 10000 | < 100 | < 500 | < 500 | < 500 | < 5000 | > 10000 | –
12 | COc1cccc(Nc2nc3c(-c4nnc[nH]4)cccc3c3cnccc23)c1 | < 1000 | < 100 | < 5000 | < 500 | < 1000 | < 100 | < 1000 | –
13 | COc1cccc(CNc2nc3c(-c4nc[nH]n4)cccc3c3cnccc23)c1 | > 10000 | < 100 | < 500 | < 500 | < 500 | < 5000 | > 10000 | –
14 | Cc1cc(Nc2nc3c(-c4nnc[nH]4)cccc3c3cnccc23)ccc1F | < 500 | < 100 | > 10000 | < 100 | < 500 | < 5000 | > 10000 | –
15 | Fc1ccc(Nc2nc3c(-c4nc[nH]n4)cccc3c3cnccc23)cc1F | < 5000 | < 100 | > 10000 | < 100 | < 500 | < 5000 | < 1000 | –
16 | Fc1ccc(Nc2nc3c(-c4nnc[nH]4)cccc3c3cnccc23)cc1Cl | < 5000 | < 100 | < 5000 | < 100 | < 500 | < 1000 | < 5000 | –
17 | Fc1cc(Cl)cc(Nc2nc3c(-c4nnc[nH]4)cccc3c3cnccc23)c1 | < 500 | < 100 | < 5000 | < 100 | > 1100 | < 500 | < 1000 | –
18 | c1ccc(CCNc2nc3c(-c4nc[nH]n4)cccc3c3cnccc23)cc1 | > 10000 | < 100 | > 10000 | < 500 | < 500 | < 1000 | < 10000 | –
19 | Fc1cc(F)cc(Nc2nc3c(-c4nnc[nH]4)cccc3c3cnccc23)c1 | < 1000 | < 100 | < 5000 | < 500 | < 500 | < 1000 | > 10000 | –
20 | NS(=O)(=O)c1cccc(Nc2nc3c(-c4nc[nH]n4)cccc3c3cnccc23)c1 | > 10000 | < 100 | > 10000 | < 500 | < 500 | < 1000 | > 10000 | –
21 | COc1cc(Nc2nc3c(-c4nc[nH]n4)cccc3c3cnccc23)ccc1F | < 10000 | < 100 | < 5000 | < 500 | < 500 | < 5000 | > 10000 | –

Row | SMILES | IC50 [1] [nM] | IC50 (recombinant human PIM1) [nM] | IC50 (K-562) [nM] | IC50 (MV-4-11) [nM] | IC50 (PIM2) [nM] | IC50 (phosphoBAD ser 112) [nM] | IC50 (MDAMB231 [2]) [nM] | IC50 (MDAMB231 [3]) [µM]
22 | NC(=O)c1cccc2c1nc(Nc1ccc(F)cc1)c1ccncc12 | < 1000 | < 100 | < 5000 | < 100 | < 500 | < 100 | > 30000 | –
23 | FC(F)(F)Oc1ccccc1Nc1nc2c(-c3nnc[nH]3)cccc2c2cnccc12 | > 10000 | < 100 | > 10000 | < 500 | < 100 | < 100 | > 10000 | –
24 | COCCNc1nc2c(-c3nc[nH]n3)cccc2c2cnccc12 | < 5000 | < 100 | < 10000 | < 100 | < 500 | < 100 | < 10000 | –
25 | OCCNc1nc2c(-c3nnc[nH]3)cccc2c2cnccc12 | < 500 | < 500 | > 10000 | < 100 | < 1000 | < 500 | > 10000 | –
26 | NC(=O)c1cccc2c1nc(Nc1cccc(F)c1)c1ccncc12 | < 1000 | < 500 | < 1000 | < 120 | – | < 100 | < 1000 | –
27 | COCCOc1ccc(Nc2nc3c(-c4nnc[nH]4)cccc3c3cnccc23)cc1 | < 1000 | < 500 | > 10000 | < 100 | < 1000 | < 500 | < 10000 | –
28 | COCCOc1cccc(Nc2nc3c(-c4nnc[nH]4)cccc3c3cnccc23)c1 | > 10000 | < 500 | > 10000 | < 100 | – | < 100 | > 10000 | –
29 | FC(F)(F)Oc1cccc(Nc2nc3c(-c4nnc[nH]4)cccc3c3cnccc23)c1 | < 5000 | < 500 | < 500 | < 500 | < 1000 | < 5000 | > 10000 | –
30 | C#Cc1cccc(Nc2nc3cc(C(=O)O)ccc3c3cnccc23)c1 [drawing 998] | – | – | – | – | – | – | – | 11.8
31 | O=C(O)c1ccc2c(c1)nc(NCc1ccccc1)c1ccncc12 [drawing 1000] | – | – | – | – | – | – | – | 38
32 | C#Cc1cccc(Nc2nc3cc(C(=O)O)ccc3c3cnc(NCC4CCCO4)nc23)c1 (centres unmarked) [drawing 1038] | – | – | – | – | – | – | – | 8.38
33 | C#Cc1cccc(Nc2nc3cc(C(=O)O)ccc3c3cnc(NCC4CC4)nc23)c1 [drawing 1039] | – | – | – | – | – | – | – | 2.63
34 | COC(=O)c1ccc2c(c1)nc(NC1CC1)c1nc(SCc3ccccc3Cl)ncc12 [drawing 1044] | – | – | – | – | – | – | – | 7.23
35 | O=C(O)c1ccc2c(c1)nc(NC1CC1)c1nc(SCc3ccccc3Cl)ncc12 [drawing 1047] | – | – | – | – | – | – | – | > 50
36 | CCOc1ncc2c(n1)c(NC1CC1)nc1cc(C(=O)O)ccc12 [drawing 1048] | – | – | – | – | – | – | – | > 50
37 | O=C(O)c1ccc2c(c1)nc(NC1CC1)c1nc(NC3CC3)ncc12 [drawing 1049] | – | – | – | – | – | – | – | 7.22
38 | O=C(O)c1ccc2c(c1)nc(NC1CC1)c1nc(NCc3ccccc3)ncc12 [drawing 1050] | – | – | – | – | – | – | – | 23.5
39 | O=C(O)c1ccc2c(c1)nc(NC1CC1)c1nc(Nc3ccccc3)ncc12 [drawing 1051] | – | – | – | – | – | – | – | 6.88
40 | O=C(O)c1ccc2c(c1)nc(Nc1cncc(C3CC3)c1)c1ccncc12 [drawing 1052] | – | – | – | – | – | – | – | > 50
41 | NC(=O)c1cccc2c1nc(Nc1cccc(Cl)c1)c1ccncc12 [drawing 2246] | < 1000 | < 100 | < 500 | < 100 | – | < 5000 | < 10000 | –
